{"source": "patent US9943504B2", "about": "“Arginine methyltransferase inhibitors and uses thereof” (Epizyme, Inc., priority 2013, dated 2018)"}
{"test_system": "mono-methyl arginine in RKO cells", "assay": "RKO Methylation Assay (In Cell Western)", "format": "cell-based", "conditions": "72 hours, percent activation", "excerpt": "RKO adherent cells were purchased from ATCC (American Type Culture Collection), Manassas, Va., USA. DMEM/Glutamax medium, penicillin-streptomycin, heat inactivated fetal bovine serum, 0.05% trypsin and D-PBS were purchased from Life Technologies, Grand Island, N.Y., USA. Odyssey blocking buffer, 800CW goat anti-rabbit IgG (H+L) antibody, and Licor Odyssey infrared scanner were purchased from Licor Biosciences, Lincoln, Nebr., USA. Mono-methyl arginine antibody was purchased from Cell Signaling Technology, Danvers, Mass., USA. Methanol was purchased from VWR, Franklin, Mass., USA. 10% Tween 20 was purchased from KPL, Inc., Gaithersburg, Md., USA. DRAQ5 was purchased from Biostatus Limited, Leicestershire, UK.\nRKO adherent cells were maintained in growth medium (DMEM/Glutamax medium supplemented with 10% v/v heat inactivated fetal bovine serum and 100 units/mL penicillin-streptomycin) and cultured at 37° C. under 5% CO2.\nCell Treatment, in Cell Western (ICW) for Detection of Mono-Methyl Arginine and DNA Content.\nRKO cells were seeded in assay medium at a concentration of 20,000 cells per mL to a poly-D-lysine coated 384 well culture plate (BD Biosciences 356697) with 50 μL per well. Compound (100 nL) from a 96-well source plate was added directly to 384 well cell plate. Plates were incubated at 37° C., 5% CO2 for 72 hours. After three days of incubation, plates were brought to room temperature outside of the incubator for ten minutes and blotted on paper towels to remove cell media. 50 μL of ice cold 100% methanol was added directly to each well and incubated for 30 min at room temperature. After 30 min, plates were transferred to a Biotek EL406 plate washer and washed 2 times with 100 μL per well of wash buffer (1×PBS). Next 60 μL per well of Odyssey blocking buffer (Odyssey Buffer with 0.1% Tween 20 (v/v)) were added to each plate and incubated 1 hour at room temperature. Blocking buffer was removed and 20 μL per well of primary antibody was added (mono-methyl arginine diluted 1:200 in Odyssey buffer with 0.1% Tween 20 (v/v)) and plates were incubated overnight (16 hours) at 4° C. Plates were washed 5 times with 100 μL per well of wash buffer. Next 20 μL per well of secondary antibody was added (1:200 800CW goat anti-rabbit IgG (H+L) antibody, 1:1000 DRAQ5 (Biostatus limited) in Odyssey buffer with 0.1% Tween 20 (v/v)) and incubated for 1 hour at room temperature. The plates were washed 5 times with 100 μL per well wash buffer then 2 times with 100 μL per well of water. Plates were allowed to dry at room temperature then imaged on the Licor Odyssey machine which measures integrated intensity at 700 nm and 800 nm wavelengths. Both 700 and 800 channels were scanned.\nFirst, the ratio for each well was determined by:\nEach plate included fourteen control wells of DMSO only treatment (minimum activation) as well as fourteen control wells for maximum activation treated with 20 μM of a reference compound. The average of the ratio values for each control type was calculated and used to determine the percent activation for each test well in the plate. Reference compound was serially diluted three-fold in DMSO for a total of nine test concentrations, beginning at 20 μM. Percent activation was determined and EC30 curves were generated using triplicate wells per concentration of compound."}
{"smiles": "CNCCN(C)Cc1n[nH]c2ccc(OCc3cc[nH]n3)cc12", "note": "[Compound 17]", "RGG ICW EC30": "C (“C” indicates an EC30 ≥ 12.01 μM)"}
{"smiles": "CNCCN(C)Cc1n[nH]c2ccc(OCCOC)cc12", "note": "[Compound 5, N^1-((5-(2-methoxyethoxy)-1H-indazol-3-yl)methyl)-N^1,N^2-dimethylethane-1,2-diamine]", "RGG ICW EC30": "B (“B” indicates an EC30 of 3.01-12.00 μM)"}
{"smiles": "CNCCN(C)Cc1n[nH]c2ccc(OCc3cccc(C#N)c3)cc12", "note": "[Compound 14]", "RGG ICW EC30": "B (“B” indicates an EC30 of 3.01-12.00 μM)"}
{"smiles": "CNCCN(C)Cc1n[nH]c2ccc(OC3CCCC3)cc12", "note": "[Compound 11]", "RGG ICW EC30": "A (“A” indicates an EC30 ≤ 3.00 μM)"}
{"smiles": "CNCCN(C)Cc1nn(C)c2ccc(OCC(C)C)cc12", "note": "[Compound 3, N^1-((5-iso-butoxy-1-methyl-1H-indazol-3-yl)methyl)-N^1,N^2-dimethylethane-1,2-diamine]", "RGG ICW EC30": "C (“C” indicates an EC30 ≥ 12.01 μM)"}
{"smiles": "CC(C)COc1ccc2[nH]nc(CN(C)CCN)c2c1", "note": "[Compound 2, N^1-((5-iso-butoxy-1H-indazol-3-yl)methyl)-N^1-methylethane-1,2-diamine]", "RGG ICW EC30": "B (“B” indicates an EC30 of 3.01-12.00 μM)"}
{"smiles": "CNCCN(C)Cc1n[nH]c2ccc(OCc3ccccn3)cc12", "note": "[Compound 12]", "RGG ICW EC30": "B (“B” indicates an EC30 of 3.01-12.00 μM)"}
{"smiles": "CNCCN(C)Cc1n[nH]c2ccc(Oc3ccccc3)cc12", "note": "[Compound 10, N^1,N^2-dimethyl-N^1-((5-phenoxy-1H-indazol-3-yl)methyl)ethane-1,2-diamine]", "RGG ICW EC30": "B (“B” indicates an EC30 of 3.01-12.00 μM)"}
{"smiles": "CNCCN(C)Cc1n[nH]c2ccc(OCCCOC)cc12", "note": "[Compound 6]", "RGG ICW EC30": "A (“A” indicates an EC30 ≤ 3.00 μM)"}
{"smiles": "CNCCN(C)Cc1n[nH]c2ccc(OCc3ccc(C#N)cc3)cc12", "note": "[Compound 13]", "RGG ICW EC30": "B (“B” indicates an EC30 of 3.01-12.00 μM)"}
{"smiles": "CNCCN(C)Cc1n[nH]c2ccc(OC(C)Cc3ccccc3)cc12", "note": "(centres unmarked) [Compound 9]", "RGG ICW EC30": "B (“B” indicates an EC30 of 3.01-12.00 μM)"}
{"smiles": "CNCCN(C)Cc1n[nH]c2ccc(OC(C)C(C)C)cc12", "note": "(centres unmarked) [Compound 4]", "RGG ICW EC30": "A (“A” indicates an EC30 ≤ 3.00 μM)"}
{"smiles": "CNCCN(C)Cc1n[nH]c2ccc(OCCc3ccccc3)cc12", "note": "[Compound 7]", "RGG ICW EC30": "A (“A” indicates an EC30 ≤ 3.00 μM)"}
{"smiles": "CNCCN(C)Cc1n[nH]c2ccc(OCCC(C)C)cc12", "note": "[Compound 8]", "RGG ICW EC30": "A (“A” indicates an EC30 ≤ 3.00 μM)"}
